Source: patent publication US20200024234A1, “RADIOPHARMACEUTICAL COMPLEXES” (LUMIPHORE, INC., priority 2009, published 2020)
{NH2C3} = aminopropyl group attached via phosphodiester linkage

Legend:
[1] = Gel electrophoresis mobility shift assay of complexation with metal cations
Excerpt: LUMI4® is an isophthalamide class macrocyclic chelate that selectively coordinates to metal cations including those of the lanthanide series. For use in certain applications, such as acting as a bifunctional chelating agent to attach a radioisotope to a site-directing molecule, it is necessary that the chelate be able to coordinate to the metal ion of interest in a kinetically facile and thermodynamically stable manner. […] In this experiment, a conjugate of LUMI4® with a small (18 base length) DNA oligomer was treated with a solution containing a metal cation. The electrophoretic mobility of the conjugate on a polyacrylamide gel was then compared with that of the conjugate which was not exposed to the solution of metal cation. […] To provide an additional comparison, the gel electrophoretic mobility of the DNA oligomer that was not conjugated to LUMI4® was measured with and without exposure to the metal cation solution under identical conditions.
In particular, a solution of DNA oligomer (6 μL, 5 μM, all concentrations final) was mixed with a solution of metal cation (2 μL, 250 μM) or an equal volume of water. The solution was incubated at 55° C. for five minutes, whereupon the solutions were allowed to cool to ambient temperature and a solution of 50% formamide (7 μL) was added. The resulting solution was again heated to 55° C. for five minutes and then cooled to −20° C. briefly. […]

[2] = in vivo; cited from earlier work
[3] = cited from earlier work
[4] = thorium(IV) complexes; cited from earlier work

For `NC(=O)CCCC(=O)NCCCCC1CN2CCNC(=O)c3cccc(c3O)C(=O)NCCN(CCNC(=O)c3cccc(c3O)C(=O)N1)CCN1CCNC(=O)c3cccc(c3O)C(=O)NCCN(CCNC(=O)c3cccc(c3O)C(=O)NCC1)CC2` (centres unmarked) [LUMI4®], the “stability of metal complex upon electrophoresis in the presence of the competing chelate EDTA” value ([1]; LUMI4 conjugated to a DNA oligomer) was “forms a stable complex”.
In the case of `O=C(NCCCN(CCCCN(CCCNC(=O)c1cccc(=O)n1O)C(=O)c1cccc(=O)n1O)C(=O)c1cccc(=O)n1O)c1cccc(=O)n1O` [3,4,3-LI(1,2-HOPO)], the “toxicity at effective dosage” value [2] is given as “acceptably low toxicity”, the effective dosage ([3]; in vivo) is given as 0.01 to 0.1 µmol/kg and the “removal of Th(IV), Pu(IV) or Am(III) from the wound site and body compared with CaNa3-DTPA” value ([3]; injected ip or infiltrated into a wound) is given as “much more effective”. For the same compound, the oral activity ([3]; oral) was “useful oral activity” and the “removal of injected or inhaled Pu(IV) and Am(III) compared with CaNa3-DTPA” value ([3]; rodents, injected, infused or oral) was “removes more”.
For “unmodified oligonucleotide: DNA 18-base oligonucleotide 5′-AAGGTCATCCATGACAAC-3′ (SEQ ID NO: 1) with 5′-aminopropyl group (DNA, 5' {NH2C3}, backbone not given here)”, the “gel mobility following treatment with the metal cation solution” value ([1]; 20% polyacrylamide gel, 8 M urea, running buffer with 2 mM EDTA) was “unaffected”.
In the case of `O=C(O)CN(CCN(CC(=O)O)CC(=O)O)CCN(CC(=O)O)CC(=O)O` [DTPA], the “Log K1” value [4] is given as 30.34.
